Experimental data reported in patent US8431706B2, “1,2,3,4-tetrahydroqinoline derivative useful for the treatment of diabetes” (Eli Lilly and Company, priority 2011, dated 2013).

How the values were obtained:
Assay type in all cases: cell-based
Gal4 PPARδ = molecular target: T1, Gal4 PPARδ (Homo sapiens, UniProt Q03181); test: Gal4 PPARδ reporter functional assay in CV1 cells; details: examined up to 10 μM; luciferase reporter; 24 hours
T1 construct: expressed in transfected cells; host or cells: CV1 (African green monkey kidney)
T1 sequence (Q03181 211-439 limits assumed): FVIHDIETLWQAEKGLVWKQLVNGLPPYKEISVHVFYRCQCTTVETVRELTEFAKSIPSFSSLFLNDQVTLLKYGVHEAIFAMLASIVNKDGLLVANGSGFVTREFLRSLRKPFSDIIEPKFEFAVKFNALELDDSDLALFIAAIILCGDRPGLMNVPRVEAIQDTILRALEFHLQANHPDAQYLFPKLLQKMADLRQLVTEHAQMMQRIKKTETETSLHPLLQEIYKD
Source text: Gal4 PPARα, Gal4 PPARδ, and PPARγ reporter functional assays are also used to monitor the selectivity of the exemplified compound. CV1 cells, which are derived from the renal tissue of an African green monkey, are transfected with various receptor and reporter plasmids using Fugene. For the Gal4 PPARα and PPARδ assays, a reporter plasmid containing five tandem copies of the yeast transcription protein Gal4 response element, cloned upstream of a firefly luciferase gene driven by the major late promoter of adenovirus, is transfected together with a Simian Virus 40 (SV40) driven plasmid constitutively expressing a hybrid protein containing the Gal4 DNA binding domain (DBD), and either the PPARα or PPARδ ligand binding. For the PPARγ assay, plasmids encoding PPARγ and RXRα, both driven by a cytomegalovirus (CMV) promoter are transfected together with a plasmid containing luciferase reporter cDNA driven by the TK promoter and a receptor response element (2×PPRE). Cells are transfected in T225 cm^2 cell culture flasks in DMEM media with 5% charcoal-stripped FBS. […] After 24 hours incubation with the compound, cells are lysed and luciferase activity is determined as a measure of receptor activation by luminescence. […] The maximum percent stimulation is determined versus maximum stimulation obtained with 10 μM of an appropriate PPAR agonist reference compound. […]

[1] = system: primary rodent pancreatic islets of Langerhans; test: GDIS assay in primary rodent pancreatic islets; details: 3.0 uM with rat islets and 11.2 mM glucose; compared to 11.2 mM glucose; 90 min; P<0.05
Source text: (§1) Because activation of GPR40 is known to result in insulin secretion, which is dependent on high glucose concentrations, two separate assay systems (an insulinoma cell line and primary rodent islets) are developed to further characterize compounds that are known to increase intracellular calcium in the GPR40 primary assay discussed above.
GDIS assays using primary rodent pancreatic islets of Langerhans are also used to characterize the exemplified compound. Pancreatic islets are isolated from male SD (Sprague Dawley) rats by collagenase digestion and Histopaque density gradient separation. The islets are cultured overnight in RPMI-1640 medium with GlutaMAXn (stabilized, dipeptide form of L-glutamine (Invitrogen catalog #61870-010)) to facilitate recovery from the isolation process. Insulin secretion is determined by a 90 minute incubation in EBSS (Earle's Balances Salt Solution) buffer in a 48-well plate. Briefly, islets are first preincubated in EBSS with 2.8 mM glucose for 30 min, and are then transferred to a 48-well plate (four islets/well) containing 150 μl 2.8 mM glucose, and incubated with 150 μl of EBSS with 2.8 or 11.2 mM glucose in the presence or absence of test compound for 90 minutes. The buffer is removed from the wells at the end of the incubation, and assayed for insulin levels using the Rat Insulin ELISA kit (Mercodia). […]

[2] = system: mouse insulinoma cell line Min6; test: Glucose Dependent Insulin Secretion (GDIS) assay in Min6 cells
Method: as §1
GDIS assays are performed using the mouse insulinoma cell line Min6. […] On the day of the experiment, the cells are washed twice with 200 μl of pre-warmed Krebs-ringer buffer without glucose. Addition of 200 μL of pre-warmed Krebs-ringer buffer containing 2.5 mM glucose is used to starve the cells followed by the addition of compounds in the presence of a high concentration of glucose (25 mM). The plate is incubated at 37° C. for 2 hours. At the end of the 2 h incubation, the supernatant is gently transferred into a Millipore filter plate and spun at 200 g (gravitational force) for 3 minutes. Insulin is assayed using a Mercodia Insulin estimation kit.

CC#C[C@@H](CC(=O)O)c1ccc(OCc2ccc(CN3CCCc4cccc(OC)c43)s2)cc1 [Example 1, (3S)-3-[4-[[5-[(8-Methoxy-3,4-dihydro-2H-quinolin-1-yl)methyl]-2-thienyl]methoxy]phenyl]hex-4-ynoic acid]
functional activation of PPARδ (Gal4 PPARδ): No functional activation
increase in insulin [1]: 2.1 fold
increase in insulin secretion ([2]; 1.0 μM plus 25 mM glucose, fold over 25 mM glucose, 2 h, P<0.01): 2.68 fold
insulin secretion, dose response ([2]; 0.01, 0.1, 1.0 and 10.0 μM plus 25 mM glucose): dose dependent increase in insulin secretion
